# Results: patent US9464080B2, “Substituted pyrido[2,3-d]pyrimidines for dry skin and anti-ageing application” (L'OREAL, priority 2012, dated 2016)
# What was measured:
# Assay type in all cases: cell-based
# [1] = tested on: Episkin™ reconstructed epidermis; experiment: HES morphological observation of treated Episkin reconstructed epidermis; settings: systemic treatment over 5 days
# Protocol: (§1) The reconstructed epidermises, received from the Episkin company at six days of reconstruction, were placed back into culture, when received, in 3.5 ml of differentiation medium (Episkin™ medium) under insert (in emersion) in an incubator for 48 hours (37° C., 5% CO2).
# (§2) The epidermises were subsequently contacted with the test compounds systemically. The Episkin™ differentiation culture medium is replaced by a differentiation medium containing the test compounds with 0.1% of final DMSO vehicle. The epidermises were placed back into culture in the incubator for 48 hours. A new systemic treatment is carried out for a further 72 hours in culture in the incubator.
# (§3) For the treatment on Episkin™, each test compound was prepared at the time of use by being weighed out and dissolved at 10 mM in DMSO, then used to treat 3 samples of reconstructed epidermis. […] The positive controls used were vitamin D3, retinol and calcipotriol (a vitamin D3 analogue).
# (§4) The epidermises were withdrawn (3 epidermises per treatment) for histological analysis and protein extracts (a single reconstructed epidermis is used for the histological study and the protein extract).
# Morphological control of the reconstructed epidermises treated was carried out using HES (Hematoxylin—Eosin—Saffron) staining in accordance with a standard protocol on the histological sections of the samples enclosed in paraffin (toluene bath: thrice 15 minutes; 100° alcohol baths; twice one minute; 95° alcohol baths: one minute; rinsing in water baths; hematoxylin bath: once 2 minutes; rinsing in water baths; brief immersion in a hydrochloric acid bath; rinsing with water; eosin bath: once one minute; rinsing with water; brief immersion in a 100° alcohol bath; saffron bath (5 minutes); brief immersion in a 100° alcohol bath; toluene bath: thrice 2 minutes).
# Ki67 = Ki67 immunolabelling of treated Episkin reconstructed epidermis
# Protocol: as §1, §2, §3, §4
# The samples of epidermis were enclosed in OCT for freezing in liquid nitrogen and then stored at −80° C. […]
# CD44 = CD44 immunolabelling of treated Episkin reconstructed epidermis; settings: for CD44: Episkin, systemic treatment over 5 days, effect generally rated for the highest concentration used (10 μM)
# Protocol: as §1, §2
# For the treatment on Episkin™, each test compound was prepared at the time of use by being weighed out and dissolved at 10 mM in DMSO, then used to treat 3 samples of reconstructed epidermis. Furthermore, each compound under test was employed at a final 1 and […] in the culture medium (0.1% final DMSO). The positive controls used were vitamin D3, retinol and calcipotriol (a vitamin D3 analogue).
# as §4
# The samples of epidermis were enclosed in OCT for freezing in liquid nitrogen and then stored at −80° C. The resulting blocks were cut to a thickness of 7 μm using a cryostat, and the slices were dried and stored at −20° C. while awaiting immunolabelling.
# The labels selected for the immunolabelling are as follows: • Ki67 to provide information on any change in cell proliferation in the basal layer, and • CD44 to provide information on any change in the metabolism of the living layers and in the proliferation/differentiation balance.
# [2] = effect generally rated for the highest concentration used (10 μM)
SMILES,HES ([1]; 100 μM),"Ki67 (Ki67; Episkin, systemic treatment over 5 days, 100 μM)","HES [1, 2]","Ki67 labelling (Ki67; Episkin samples treated, FIG. 2)","CD44 immunolabelling (CD44; Episkin samples treated, FIG. 3)",CD44 (CD44)
"CC1=C(/C=C/C(C)=C/C=C/C(C)=C/CO)C(C)(C)CCC1 [Retinol, retinol, reference compound]",0,0,,,,
CCOC(=O)C1=C(C)Nc2c(c(=O)n(C)c(=O)n2C)C1CC(C)C (stereo not drawn) [Compound (4)],,,0,strong increase in Ki67 labelling,increase in CD44,++ (*)
"C=C1CC[C@H](O)C/C1=C/C=C1\CCC[C@]2(C)[C@@H]([C@H](C)CCCC(C)C)CC[C@@H]12 [Vitamin D3, vitamin D3, reference compound]",,,0,,,
CCOC(=O)C1=C(C)Nc2c(c(=O)n(C)c(=O)n2C)C1c1cccc(Oc2ccccc2)c1 (stereo not drawn) [Compound (2)],,,0,,,0
